Experimental data from patent US7615361B2, “Toxicity screening methods” (Ceetox, Inc., priority 2006, dated 2009).

Columns and labels:
[1] = MTT reduction; conditions: human; for CC50 at 24 h: MTT TC50, SK-MEL28, 24 HR
Experimental: Tetrazolium Dye Reduction: 3-[4,5-dimethylthiazol-2-yl]
The test compound consisted of two parts mixed in a constant ratio of 5:1. The final test mixture consisted of Test mix 1 and Test mix 2, which were received as frozen solutions. The test mixture was tested in a ratio of 5:1 COMP A in five different cell types which included the following: SK-MEL28, human hepatocytes, HUVEC, C32, and NHEM cells. Cells were seeded into 96-well plates and cultured in medium containing 10% bovine serum. […]
Experimental Protocol: The test compounds were shipped on dry ice for testing. The compounds were stored frozen at −80° C. until needed. Dosing solutions were prepared in complete culture medium. SK-MEL28, human hepatocytes, HUVEC, C32, and NHEM cells were used as the test systems. Cells were seeded into 96-well plates and allowed to equilibrate for approximately 48 hr. Following the equilibration period the cells were exposed to the test compound mix at concentrations of COMP A (μg/mL)=(250:50), (125:25), (25:12.5), (12.5:2.5), (2.5:1.25), (1.25:0.25), and (0.25:0.05). Solubility was determined by Nephalometry techniques immediately after dosing and prior to harvesting the cells at 24 hr. Following the exposure period, the cells or their supernatant (culture medium) were analyzed for changes in cell proliferation, membrane leakage, mitochondrial function, oxidative stress, and apoptosis. The resultant exposure concentration response curves were graphed and analyzed for determining the concentration that produced a half maximal response or TC50.

[2] = biological target: P-glycoprotein (PgP) (Homo sapiens, UniProt P08183); assay: P-glycoprotein (PgP) binding: MTT with and without cyclosporin A, HUVEC; type: cell-based; parameters: SK-MEL28, human hepatocytes, HUVEC, C32, and NHEM cells were used as the test systems; endogenous in cells; conditions: HUVEC 24 HR; for % Control (Compound + CSA): with cyclosporin A; for % Control (Compound): without CSA
Sequence of P-glycoprotein (PgP) (P08183 whole entry): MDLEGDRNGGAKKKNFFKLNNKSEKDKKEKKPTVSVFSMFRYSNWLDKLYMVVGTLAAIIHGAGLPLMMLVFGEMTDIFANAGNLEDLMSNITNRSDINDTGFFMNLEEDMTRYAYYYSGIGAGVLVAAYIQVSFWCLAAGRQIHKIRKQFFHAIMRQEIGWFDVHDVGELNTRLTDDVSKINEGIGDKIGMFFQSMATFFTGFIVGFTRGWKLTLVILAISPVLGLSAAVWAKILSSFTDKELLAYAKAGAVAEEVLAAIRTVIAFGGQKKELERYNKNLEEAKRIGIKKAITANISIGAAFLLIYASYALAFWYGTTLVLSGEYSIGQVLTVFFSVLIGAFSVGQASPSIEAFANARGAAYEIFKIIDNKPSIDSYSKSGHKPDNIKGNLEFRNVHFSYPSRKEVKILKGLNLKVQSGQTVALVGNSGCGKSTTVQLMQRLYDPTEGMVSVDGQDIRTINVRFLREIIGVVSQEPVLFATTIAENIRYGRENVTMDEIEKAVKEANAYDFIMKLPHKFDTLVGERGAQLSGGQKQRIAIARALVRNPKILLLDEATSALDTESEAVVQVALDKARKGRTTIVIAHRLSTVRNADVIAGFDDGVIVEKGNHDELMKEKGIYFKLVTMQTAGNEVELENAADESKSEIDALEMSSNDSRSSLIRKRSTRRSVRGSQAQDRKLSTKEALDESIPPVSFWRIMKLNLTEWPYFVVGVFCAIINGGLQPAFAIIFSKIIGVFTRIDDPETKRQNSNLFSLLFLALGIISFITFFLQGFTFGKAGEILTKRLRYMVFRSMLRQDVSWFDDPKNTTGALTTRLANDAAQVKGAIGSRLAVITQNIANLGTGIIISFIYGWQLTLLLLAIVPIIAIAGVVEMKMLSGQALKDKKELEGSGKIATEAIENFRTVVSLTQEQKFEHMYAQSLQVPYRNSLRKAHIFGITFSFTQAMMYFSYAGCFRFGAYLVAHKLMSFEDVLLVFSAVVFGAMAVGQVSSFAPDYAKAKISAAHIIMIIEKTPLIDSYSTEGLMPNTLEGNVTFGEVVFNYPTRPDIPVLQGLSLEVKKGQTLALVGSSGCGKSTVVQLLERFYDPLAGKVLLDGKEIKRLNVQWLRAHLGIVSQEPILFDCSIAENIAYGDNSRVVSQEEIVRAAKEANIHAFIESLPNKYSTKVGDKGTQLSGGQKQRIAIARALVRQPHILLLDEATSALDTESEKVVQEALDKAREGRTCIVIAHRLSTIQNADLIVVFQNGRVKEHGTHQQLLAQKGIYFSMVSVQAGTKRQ

[3] = MemTox membrane leakage (AK / α-GST); type: cell-based; conditions: rat, NRK cells, read-out: GST TC50
Experimental: Membrane Leakage (α-Glutathione S-transferase and/or Adenylate Kinase): The presence of Adenylate Kinase (AK) or α-Glutathione S-transferase (α-GST), both enzyme leakage markers, was measured in the culture medium using an activity assay for Adenylate Kinase and/or an ELISA assay for α-GST. At the end of the exposure period, the medium covering the cells in each well was removed and placed into new 96-well plates with appropriate labeling. […] Luminescence (AK) values were measured with a Packard Fusion or equivalent plate reader, and absorbance (α-GST) values were measured with a Packard SpectraCount™ or equivalent reader at 450 nm and reference absorbance at 650 nm.
Membrane Leakage (α-Glutathione S-transferase and/or Adenylate Kinase): Leakage of Adenylate Kinase or α-GST from the cell into the culture medium was determined by collecting the culture medium at the end of the exposure period. Thus, the values measured represent total enzyme leakage lost over the exposure period. The control for 100% dead or maximum enzyme release was based on cells treated with 1 mM digitonin at the time of dosing. Percent dead cells relative to digitonin treated cells was determined and then subtracted from 100% to yield the percent live cells.
The third experiment was done to evaluate the specificity and selectivity of the test compound in another non-tumor cell that was derived from normal rat kidney tissue. In this experiment the test compound has no effect on cell number of acute cell death up to the 500 dilution after 6 and 24 hr of exposure (FIG. 76C and 77C). Significant effects were observed on mitochondrial markers at dilutions that dropped pH to 3.7. The bar graph in FIG. 82 summarizes these effects. […] In contrast the rat tumor cell line was sensitive to the test compound and cell death occurred at the 500 dilution and could not be attributed to low pH.

[4] = test system: H4IIE cells; assay: Caspase 3 activity (apoptosis); type: cell-based, rat
Experimental: (§1) One test compound (Compound A) was received as dry powder and evaluated for potential cytotoxicity in a battery of in vitro assays. The compound was tested using both rat cardiomyocytes (CM) from rat neonates and a rat hepatoma (H4IIE) cell line. […] The cell supernatant or the cells themselves were harvested for biochemical analysis. General cytotoxicity was evaluated by monitoring membrane integrity, mitochondrial function, cell proliferation, oxidative stress, and apoptosis. In addition, interaction with P-glycoprotein (PgP) on H4IIE cells and solubility of the test compound were also assessed. The means of each exposure group (n=3-7) were calculated for each assay performed.
Experimental Protocol: The test compound was provided and stored at 4° C. until needed. Dosing solutions were prepared in complete culture medium. The rat hepatoma (H4IIE) cell line was used as the test system.
(§2) Caspase 3 Procedure: Caspase 3 activity was determined using a caspase substrate (DEVD, Asp-Glu-Val-Asp) labeled with a fluorescent molecule, 7-Amino4-methylcoumarin (AMC). Caspase 3 cleaves the tetrapeptide between D and AMC, thus releasing the fluorogenic […] AMC. Following the test article exposure to cells in 96-well plates, medium was aspirated from plates and PBS added to each well. Plates were stored at −80° C. to lyse cells and store samples until further analysis. On the day of analysis, plates were removed from freezer and thawed. Caspase buffer with fluorescent substrate was added to each well and incubated at room temperature for 1 hr. AMC release was measured in a spectrofluorometer at an excitation wavelength of 360 nm and an emission wavelength of 460 nm. Values are expressed as relative fluorescent units (RFU).
(§3) Caspase Activity: After sample plates were completely thawed, the caspase substrate buffer mix was added to each plate. Plates were incubated at room temperature for 1hr, shielded from light. Plates were read using a in a spectrofluorometer at an excitation wavelength of 360 nm and an emission wavelength of 460 nm. Values were expressed as relative fluorescent units (RFU).
(§4) The key to the maximal response data can be found below Table 2.

[5] = test system: rat cardiomyocytes; assay: Caspase 3 activity (apoptosis); type: cell-based
Experimental: as §1, §2, §3, §4

[6] = H4IIE, 24 HR, exposure concentration that produced the response (μM series)

Row | Compound | % Control (Compound + CSA) [2] [%] | % Control (Compound) [2] [%] | CC50 at 6 h [3] [µM] | CC50 at 24 h [3] [µM] | Caspase 3 Activity (Index/Dose): Dose ([4]; rat, 24 h) | Caspase 3 Activity (Index/Dose): Dose ([5]; rat, 24 h) | Caspase 3 Activity (Index/Dose): Index ([4]; H4IIE, 24 HR) | Caspase 3 Activity (Index/Dose): Dose [4, 6] | also measured
1 | C=C(C)[C@H]1Cc2c(ccc3c2O[C@@H]2COc4cc(OC)c(OC)cc4[C@@H]2C3=O)O1 [ROTENONE, Rotenone] | 77.8 | 75.4 | 10 | 10 |  |  |  |  | CC50 at 72 h [1]: 0.2 µM
2 | COc1cccc2c1C(=O)c1c(O)c3c(c(O)c1C2=O)C[C@@](O)(C(=O)CO)C[C@@H]3O[C@H]1C[C@H](N)[C@@H](O)[C@H](C)O1 [EPIRUBICIN, epirubicin] |  |  |  |  | 50 | 20 |  |  | 
3 | COc1cccc2c1C(=O)c1c(O)c3c(c(O)c1C2=O)C[C@@](O)(C(=O)CO)C[C@@H]3O[C@H]1C[C@H](N)[C@H](O[C@@H]2CCCCO2)[C@H](C)O1 [PIRARUBICIN, pirarubicin] |  |  |  |  |  |  | 8 (1400-1600 = 8) | 10 (1800-2000 = 10) | 
4 | CC[C@@]1(O)C(=O)OCc2c1cc1n(c2=O)Cc2cc3ccccc3nc2-1 [CAMPTOTHECIN, Camptothecin] | 18.0 | 29.4 | 300 | 100 |  |  | 5 (800-1000 = 5) | 100 | Caspase 3 Activity (Index/Dose): Index ([5]; CM, 24 HR): 6 (1000-1200 = 6); Caspase 3 Activity (Index/Dose): Dose ([5]; CM, 24 HR, exposure concentration that produced the response (μM series)): 300; CC50 at 24 h ([1]; SK-MEL28 cells): 241 µM; CC50 at 24 h ([1]; SK-MEL28 cells, run #2): 249 µM; CC50 at 72 h ([1]; SK-MEL28 cells, MTT TC50, SK-MEL28, 72 HR, run #2): 0.1 µM
5 | Cc1cccc(C)c1OCC(=O)N[C@@H](Cc1ccccc1)[C@@H](O)C[C@H](Cc1ccccc1)NC(=O)[C@H](C(C)C)N1CCCNC1=O [LOPINAVIR, lopinavir] |  |  |  |  | 300 | 100 |  |  | 
6 | CC(C)Nc1cccnc1N1CCN(C(=O)c2cc3cc(NS(C)(=O)=O)ccc3[nH]2)CC1 [DELAVIRDINE, delavirdine] |  |  |  |  |  | 100 |  |  | 
